From publication PMC10142861, “Synthesis, Antiproliferative Effect and In Silico LogP Prediction of BIM-23052 Analogs Containing Tyr Instead of Phe” (Pharmaceutics, 2023) come the findings set out here.

Where “and” joins values, the source holds several entries; their conditions need not be identical. Equal entries are not always repeated. Where two headings read alike, the source gives them in different places. Square brackets hold non-standard residues; d marks the D form. Peptide text beside a SMILES is read from it. Where only a bound is given, the exact number is not on record here.

The test system of data set [1] is MCF-10A breast epithelial cells. To be noted: 72 h. From the text:
(§1) The breast cancer cells MDA-MB-231 (ATCC: HTB-26) and MCF-7 (ATCC: HTB-22) were used to determine antiproliferative activity under in vitro conditions. The breast epithelial cells (MCF-10A, ATCC: CRL-10317) and mouse embryonic fibroblasts (BALB/c 3T3 clone A31, ATCC: CCL-163) were used as control. Cell cultures were purchased from American Type Cultures Collection (ATCC, Manassas, Virginia, USA). In cell culture, growth medium DMEM-high glucose, 10% (v/v) FBS and antibiotics (Sigma-Aldrich, Schnelldorf, Germany) were used. Cells were incubated at 37 °C, 5% CO2 and 95% humidity. Cells were grown in plastic flasks with a surface of 75 cm^2 (Deltalab S.L., Barcelona, Spain).
(§2) Cell viability was determined by a colorimetric MTT-dye reduction assay. The method is based on an enzyme reaction leading to the reduction of […] (MTT) to formazan crystals. The concentration of formazan, which is directly proportional to cell viability, was determined by a spectrophotometric method. Cells (MCF-7, MDA-MB-231 and MCF-10A) were seeded at a 1 × 10^3 cells/100 µL/well in 96-well microplates. The plates were placed in a thermostat under standard conditions for 24 h. Cells were then treated with the peptide analogs at concentrations ranging from 7.5 to 2000 μm. The cells were then incubated in a thermostat for 72 h. The formazan concentration was measured spectrophotometrically by a microplate reader at a wavelength of 540 nm. The antiproliferative potential of BIM-23052 analogs was presented as IC50 values, calculated using GraphPad Prizm Software (San Diego, CA, USA).
(§3) The antiproliferative activity of BIM-23052 analogs was studied by MTT assay. The normal and tumor cell cultures were incubated with the peptide analogs with a concentration range from 7.5 to 2000 μm for 72 h. The antiproliferative activity was determined (Figure 3 and Table 3).
(§4) Figure 3 Dose–response curves for antiproliferative activity of BIM-23052 analogs determined in MCF-10A (ATCC® CRL-10317^TM), MCF-7 (ATCC® HTB-22^TM) and MDA-MB-231 (ATCC® HTB-26^TM) cell lines. Mean values are presented ± SD from three independent experiments, n = 6.

Data set [2] has as its system MDA-MB-231 breast cancer cells. To be noted: for IC50: 72 h.
Description: as §1, §2, §3, §4

For data set [3], the system named is MCF-7 breast cancer cells. The following applies: for IC50: 72 h.
Description: as §1, §2, §3, §4

A further data set is described as follows: in vitro. The following applies: mouse.
Description: as §1
A safety test was performed on the method BALB/c 3T3 Neutral Red Uptake cytotoxicity Assay. The data generated from the in vitro cytotoxicity assay can be used to determine the safety level of the investigated substances and can predict the starting doses for in vivo toxicity assays. The cells (BALB/c 3T3, clone A31) were seeded at 1 × 10^4 cells/100 μL/well in 96-well flat-bottomed microplates. The plates were placed in a thermostat at 37 °C, 5% CO2 and 95% humidity for 24 h. Peptides were pre-dissolved in DMSO and then culture medium (DMEM) was added. The cells were treated with the BIM-23052 analogs at concentrations from […]. The treated cell culture was incubated for 24 h in a thermostat under standard conditions. The microplates were then washed twice with PBS, and Neutral Red Desorb (1% acetic acid/50% ethanol/49% water) was added. Absorbance was measured by a microplate reader at a wavelength of 540 nm.
The safety test of BIM-23052 analogues was carried out by Neutral Red Uptake cytotoxicity Assay. Cell cultures were incubated with the tested peptide analogs for 24 h.
Mean values are presented ± SD from three independent experiments, n = 6.

Setting [4] is: read-out: Mean IC50 ± SD, Antiproliferative Effect, MCF-10A, MTT, 7.5 to 2000 μm, absorbance 540 nm, mean ± SD, three independent experiments, n = 6.
Setting [5] is: read-out: Mean IC50 ± SD, Antiproliferative Effect, MDA-MB-231, MTT, 7.5 to 2000 μm, absorbance 540 nm, mean ± SD, three independent experiments, n = 6.
The mark [6] stands for this setting: read-out: Mean IC50 ± SD, Antiproliferative Effect, MCF-7, MTT, 7.5 to 2000 μm, absorbance 540 nm, mean ± SD, three independent experiments, n = 6.
Where [7] appears, read: SI = IC50 MCF-10A/IC50 MDA-MB-231.
The mark [8] stands for this setting: BALB/c 3T3 clone A31 mouse embryonic fibroblasts.

Broadly, the IC50 is the concentration needed to halve the response being measured. As for `C[C@@H](O)[C@H](NC(=O)[C@H](Cc1ccccc1)NC(=O)[C@@H](NC(=O)[C@H](CCCCN)NC(=O)[C@@H](Cc1c[nH]c2ccccc12)NC(=O)[C@H](Cc1ccccc1)NC(=O)[C@H](Cc1ccccc1)NC(=O)[C@H](N)Cc1ccccc1)[C@@H](C)O)C(N)=O` [BIM-23052, D-Phe-Phe-Phe-D-Trp-Lys-Thr-Phe-Thr-NH2] (H-[dF]FF[dW]KTFT-NH2), the IC50 in data set [1] came out at 204 ± 6.32 µM; in data set [2], 335 ± 15.4 µM; in data set [3], 120 ± 6.53 µM. Besides, the “Selectivity index SI, MDA-MB-231” value in data set [2] (2 h) is recorded as 0.61. Moreover, the “Selectivity index SI, MCF-7” value in data set [3] (2 h) was 1.7. Also, it took 483 ± 32.1 µM to reach half-maximal inhibition in “in vitro” (IC50 at 24 h).
Regarding `N.N.[Cl][Pt][Cl]` [Cisplatin, reference compound], the IC50 was 64.3 ± 2.11 µM in data set [1] (setting [4]), 6.94 ± 0.47 µM in data set [2] (setting [5]) and 43.1 ± 3.16 µM in data set [3] (setting [6]).
As for `C[C@@H](O)[C@H](NC(=O)[C@H](Cc1ccccc1)NC(=O)[C@@H](NC(=O)[C@H](CCCCN)NC(=O)[C@@H](Cc1c[nH]c2ccccc12)NC(=O)[C@H](Cc1ccc(O)cc1)NC(=O)[C@H](Cc1ccc(O)cc1)NC(=O)[C@@H](N)Cc1ccc(O)cc1)[C@@H](C)O)C(N)=O` [D6, L-Tyr^1-Tyr^2-Tyr^3-D-Trp-Lys-Thr-Phe-Thr-NH2] (H-YYY[dW]KTFT-NH2), the IC50 in data set [1] (setting [4]) turned out to be 191 ± 6.8 µM; in data set [2] (setting [5]) it was 291 ± 12.7 µM; in data set [3] (setting [6]), 359 ± 16.1 µM. In addition, the “Selectivity index SI, MDA-MB-231” value in data set [2] (setting [7]) was 0.66. In addition, the “Selectivity index SI, MCF-7” value in data set [3] (SI = IC50 MCF-10A/IC50 MCF-7) is given as 0.53. Moreover, the IC50 at 24 h in “in vitro” was > 1000 µM and 1320 µM.
With `C[C@@H](O)[C@H](NC(=O)[C@H](Cc1ccc(O)cc1)NC(=O)[C@@H](NC(=O)[C@H](CCCCN)NC(=O)[C@@H](Cc1c[nH]c2ccccc12)NC(=O)[C@H](Cc1ccccc1)NC(=O)[C@H](Cc1ccc(O)cc1)NC(=O)[C@@H](N)Cc1ccc(O)cc1)[C@@H](C)O)C(N)=O` [D7, L-Tyr^1-Tyr^2-Phe-D-Trp-Lys-Thr-Tyr^7-Thr-NH2] (H-YYF[dW]KTYT-NH2), the results for the IC50 in data set [1] (setting [4]), in data set [2] (setting [5]) and in data set [3] (setting [6]) were 433 ± 23.2 µM, 782 ± 19 µM and 403 ± 24.9 µM, respectively. For the same compound, the “Selectivity index SI, MDA-MB-231” value in data set [2] (setting [7]) is on record as 0.55. The “Selectivity index SI, MCF-7” value in data set [3] (SI = IC50 MCF-10A/IC50 MCF-7) was 1.07. This compound gave an IC50 at 24 h in the data set “in vitro” of 737 ± 20 µM.
Regarding `C[C@@H](O)[C@H](NC(=O)[C@H](Cc1ccc(O)cc1)NC(=O)[C@@H](NC(=O)[C@H](CCCCN)NC(=O)[C@@H](Cc1c[nH]c2ccccc12)NC(=O)[C@H](Cc1ccc(O)cc1)NC(=O)[C@H](Cc1ccc(O)cc1)NC(=O)[C@@H](N)Cc1ccc(O)cc1)[C@@H](C)O)C(N)=O` [D9, L-Tyr^1-Tyr^2-Tyr^3-D-Trp-Lys-Thr-Tyr^7-Thr-NH2] (H-YYY[dW]KTYT-NH2), the IC50 in data set [1] (setting [4]) is 395 ± 15.3 µM; in data set [2] (setting [5]) it was 1410 ± 19.1 µM; in data set [3] (setting [6]) it was 477 ± 31.4 µM. The “Selectivity index SI, MDA-MB-231” value in data set [2] (setting [7]) was determined as 0.28. In addition, the “Selectivity index SI, MCF-7” value in data set [3] (SI = IC50 MCF-10A/IC50 MCF-7) was 0.83. Further, in the data set “in vitro”, the IC50 at 24 h is > 1000 µM and 1430 µM.
`C[C@@H](O)[C@H](NC(=O)[C@H](Cc1ccccc1)NC(=O)[C@@H](NC(=O)[C@H](CCCCN)NC(=O)[C@@H](Cc1c[nH]c2ccccc12)NC(=O)[C@H](Cc1ccccc1)NC(=O)[C@H](Cc1ccccc1)NC(=O)[C@H](N)Cc1ccc(O)cc1)[C@@H](C)O)C(N)=O` [D11, D-Tyr^1-Phe-Phe-D-Trp-Lys-Thr-Phe-Thr-NH2] (H-[dY]FF[dW]KTFT-NH2): the IC50 in data set [1] (setting [4]) came to 864 ± 52.3 µM; in data set [2] (setting [5]), 1720 ± 58.6 µM; in data set [3] (setting [6]), 873 ± 26.6 µM. Further, in data set [2] (setting [7]), the “Selectivity index SI, MDA-MB-231” value is given as 0.50. Also, the “Selectivity index SI, MCF-7” value in data set [3] (SI = IC50 MCF-10A/IC50 MCF-7) was determined as 0.99. Besides, the IC50 at 24 h in the data set “in vitro” was > 1000 µM and 1630 µM.
As to `C[C@@H](O)[C@H](NC(=O)[C@H](Cc1ccc(O)cc1)NC(=O)[C@@H](NC(=O)[C@H](CCCCN)NC(=O)[C@@H](Cc1c[nH]c2ccccc12)NC(=O)[C@H](Cc1ccc(O)cc1)NC(=O)[C@H](Cc1ccc(O)cc1)NC(=O)[C@H](N)Cc1ccccc1)[C@@H](C)O)C(N)=O` [D61, D-Phe-Tyr^2-Tyr^3-D-Trp-Lys-Thr-Tyr^7-Thr-NH2] (H-[dF]YY[dW]KTYT-NH2), the values for the IC50 in data set [1], in data set [2] and in data set [3] were 555 ± 21.3 µM, 798 ± 24.4 µM and 426 ± 23.9 µM, respectively. For the same compound, the “Selectivity index SI, MDA-MB-231” value in data set [2] (2 h) is on record as 0.69. Besides, the “Selectivity index SI, MCF-7” value in data set [3] (2 h) amounted to 1.3. The IC50 at 24 h in the data set “in vitro” is 1200 ± 100 µM; in “in vitro” (setting [8]), above 1000 µM.
Consider `C[C@@H](O)[C@H](NC(=O)[C@H](Cc1ccc(O)cc1)NC(=O)[C@@H](NC(=O)[C@H](CCCCN)NC(=O)[C@@H](Cc1c[nH]c2ccccc12)NC(=O)[C@H](Cc1ccc(O)cc1)NC(=O)[C@H](Cc1ccc(O)cc1)NC(=O)[C@H](N)Cc1ccc(O)cc1)[C@@H](C)O)C(N)=O` [D91, D-Tyr^1-Tyr^2-Tyr^3-D-Trp-Lys-Thr-Tyr^7-Thr-NH2] (H-[dY]YY[dW]KTYT-NH2), for which the IC50 in data set [1] turned out to be 540 ± 27.2 µM; in data set [2], 849 ± 21.2 µM; in data set [3], 527 ± 54.2 µM. Besides, the “Selectivity index SI, MDA-MB-231” value in data set [2] (2 h) came out at 0.64. Moreover, in data set [3] (2 h), the “Selectivity index SI, MCF-7” value amounted to 1.02. In the data set “in vitro”, the IC50 at 24 h turned out to be 975 ± 81.7 µM.
For `C[C@@H](O)[C@H](NC(=O)[C@H](Cc1ccccc1)NC(=O)[C@@H](NC(=O)[C@H](CCCCN)NC(=O)[C@@H](Cc1c[nH]c2ccccc12)NC(=O)[C@H](Cc1ccc(O)cc1)NC(=O)[C@H](Cc1ccc(O)cc1)NC(=O)[C@H](N)Cc1ccccc1)[C@@H](C)O)C(N)=O` [D101, D-Phe-Tyr^2-Tyr^3-D-Trp-Lys-Thr-Phe-Thr-NH2] (H-[dF]YY[dW]KTFT-NH2), the IC50 in data set [1] was 604 ± 24.7 µM; in data set [2] it was 1400 ± 20 µM; in data set [3], 717 ± 20.8 µM. Further, in data set [2] (2 h), the “Selectivity index SI, MDA-MB-231” value is on record as 0.43. Besides, the “Selectivity index SI, MCF-7” value in data set [3] (2 h) is on record as 0.84. In addition, the values for the IC50 at 24 h in the data set “in vitro” and in the data set “in vitro” (setting [8]) were 1400 ± 52.3 µM and above 1000 µM, respectively.
For the compound `C[C@@H](O)[C@H](NC(=O)[C@H](Cc1ccc(O)cc1)NC(=O)[C@@H](NC(=O)[C@H](CCCCN)NC(=O)[C@@H](Cc1c[nH]c2ccccc12)NC(=O)[C@H](Cc1ccccc1)NC(=O)[C@H](Cc1ccccc1)NC(=O)[C@H](N)Cc1ccccc1)[C@@H](C)O)C(N)=O` [DD8, D-Phe-Phe-Phe-D-Trp-Lys-Thr-Tyr^7-Thr-NH2] (H-[dF]FF[dW]KTYT-NH2), the IC50 in data set [1] came to 161 ± 7.97 µM; in data set [2], 241 ± 13.4 µM; in data set [3] it was 235 ± 14.3 µM. The “Selectivity index SI, MDA-MB-231” value in data set [2] (2 h) came out at 0.67. Further, the “Selectivity index SI, MCF-7” value in data set [3] (2 h) came to 0.69. For the same compound, the midpoint of inhibition in the data set “in vitro”, the IC50 at 24 h, lay at 483 ± 33.9 µM.
